Laboratory results reported in the NIST ThermoML archive (doi:10.1016/j.jct.2008.09.016).
Numbers after ± are expanded uncertainties.

Assay: mn = molality of the nth substance listed, in mol/kg
Conditions: 101 kPa, Liquid, Vibrating tube method

O=C([O-])Cc1ccccc1Nc1c(Cl)cccc1Cl.[Na+] [sodium diclofenac] + O
mass density [kg/m3]
Conditions | m1 = 0.0075 | m1 = 0.0076 | m1 = 0.01 | m1 = 0.0125 | m1 = 0.0152 | m1 = 0.0175 | m1 = 0.02 | m1 = 0.025
293.15 K | – | 998.331 ± 0.084 | 998.385 ± 0.084 | 998.445 ± 0.085 | 998.525 ± 0.087 | 998.605 ± 0.088 | 998.695 ± 0.091 | 998.911 ± 0.092
298.15 K | – | 997.159 ± 0.099 | 997.215 ± 0.084 | 997.261 ± 0.084 | 997.325 ± 0.086 | 997.405 ± 0.09 | 997.505 ± 0.092 | 997.691 ± 0.084
303.15 K | – | 995.745 ± 0.095 | 995.795 ± 0.085 | 995.851 ± 0.085 | 995.905 ± 0.085 | 995.973 ± 0.089 | 996.075 ± 0.09 | 996.239 ± 0.084
308.15 K | – | 994.125 ± 0.09 | 994.175 ± 0.085 | 994.221 ± 0.085 | 994.294 ± 0.086 | 994.351 ± 0.088 | 994.436 ± 0.09 | 994.595 ± 0.086
310.15 K | – | 993.388 ± 0.084 | 993.424 ± 0.084 | 993.475 ± 0.086 | 993.541 ± 0.086 | 993.591 ± 0.086 | 993.661 ± 0.09 | 993.851 ± 0.091
313.15 K | 992.285 ± 0.084 | – | 992.325 ± 0.085 | 992.375 ± 0.085 | 992.428 ± 0.086 | 992.481 ± 0.086 | 992.545 ± 0.089 | 992.725 ± 0.091
